{"source": "paper PMC10137817", "about": "“Efficient Degradation for Raffinose and Stachyose of a β-D-Fructofuranosidase and Its New Function to Improve Gel Properties of Coagulated Fermented-Soymilk” (Gels, 2023)", "biological_target": "T1, LcFFase1s (β-D-fructofuranosidase) (Leptothrix cholodnii, UniProt B1Y2A2)", "T1 construct": "gene Lcho_3297; codon-optimised synthetic gene in pET-28a(+) NdeI/XhoI, E. coli BL21(DE3), Ni-IDA purified (His tag implied, cleavage not mentioned)", "T1 sequence (B1Y2A2 1-480)": "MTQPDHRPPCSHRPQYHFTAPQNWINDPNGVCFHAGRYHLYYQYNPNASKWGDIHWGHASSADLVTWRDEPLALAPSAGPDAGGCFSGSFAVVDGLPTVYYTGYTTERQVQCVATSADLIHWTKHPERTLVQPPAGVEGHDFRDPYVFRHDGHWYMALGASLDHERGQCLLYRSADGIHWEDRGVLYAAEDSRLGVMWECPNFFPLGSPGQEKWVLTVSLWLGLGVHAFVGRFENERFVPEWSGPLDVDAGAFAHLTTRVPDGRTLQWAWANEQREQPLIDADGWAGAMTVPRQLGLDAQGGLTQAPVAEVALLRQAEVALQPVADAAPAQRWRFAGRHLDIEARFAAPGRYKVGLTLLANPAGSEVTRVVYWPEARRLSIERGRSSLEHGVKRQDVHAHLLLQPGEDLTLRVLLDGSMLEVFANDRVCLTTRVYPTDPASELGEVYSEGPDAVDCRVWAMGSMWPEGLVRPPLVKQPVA", "experiment": "TLC of hydrolysis products", "type": "biochemical", "conditions": "20 mg/mL substrate, 5 U/mL enzyme, 50 mM sodium hydrogen phosphate-citrate pH 6.5, 40 °C"}
{"smiles": "OC[C@H]1O[C@H](OC[C@H]2O[C@H](O[C@]3(CO)O[C@H](CO)[C@@H](O)[C@@H]3O)[C@H](O)[C@@H](O)[C@@H]2O)[C@H](O)[C@@H](O)[C@H]1O", "note": "[raffinose]", "values": [{"measurement": "TLC of hydrolysis products", "value": "LcFFase1s entirely hydrolyzed raffinose and stachyose into fructose and melibiose or raffinose"}]}
{"smiles": "OC[C@H]1O[C@H](OC[C@H]2O[C@H](OC[C@H]3O[C@H](O[C@]4(CO)O[C@H](CO)[C@@H](O)[C@@H]4O)[C@H](O)[C@@H](O)[C@@H]3O)[C@H](O)[C@@H](O)[C@H]2O)[C@H](O)[C@@H](O)[C@H]1O", "note": "[stachyose]", "values": [{"measurement": "TLC of hydrolysis products", "value": "LcFFase1s entirely hydrolyzed raffinose and stachyose into fructose and melibiose or raffinose"}]}
